Where two headings read alike, the source gives them in different places.
Key:
[1] = cited from earlier work
[2] = test system: BRCA1 mutant MDA-MB-436 human breast cancer subcutaneous xenograft; experiment: MDA-MB-436 subcutaneous xenograft model, anti-tumor activity; format: in vivo; conditions: 30 and 100 mg/kg
[3] = Phase 2 advanced ovarian cancer study, adverse events and dose modifications; format: in vivo, human
[4] = Phase 1 study, pharmacokinetics in plasma and urine; format: in vivo, human
Description: Food intake vs fasting comparisons were made after administration of the Cycle 1 Day 7 dose (FIG. 2A) and after the Cycle 1 Day 15 dose (FIG. 2B).

[5] = test system: human acute myeloid leukemia (AML) MV-4-11-luc2/AcGFP; experiment: AML MV-4-11-luc2/AcGFP survival model; format: in vivo
[6] = test system: PARP activity (PAR levels); experiment: Phase 1 study, PARP inhibition by change in PAR levels; format: in vivo, human
[7] = test system: BRCA1 mutant human triple negative breast cancer cell line MDA-MB-436; experiment: Cell proliferation assay, MDA-MB-436; conditions: MDA-MB-436, 192 h, read-out: IC50, inhibition of cell proliferation
[8] = test system: advanced ovarian cancer; experiment: Phase 2 advanced ovarian cancer study QD vs BID, tumor response (RECIST 1.1), PFS; format: in vivo, human
Description: Patient population: Histologically or cytologically documented epithelial ovarian carcinoma including high-grade serous, endometrioid, clear cell, carcinosarcoma, undifferentiated, and mixed histological subtypes (independent of BRCA1 and homologous recombination (HR) deficiency (HRD) status) and with 2 or more previous chemotherapies/antibody therapies including treatment with other PARPi for advanced, refractory, or recurrent ovarian cancer.
The Interim Analysis Population (IAP) and safety population consisted of 28 patients (10 BID and 18 QD). Five patients received a first dose but dropped out before any tumor evaluation.
FIG. 4A and FIG. 4B show the best change in tumor diameter from baseline in the IAP QD population (FIG. 4A) and the IAP BID population (FIG. 4B). The mean of best change in tumor diameter from baseline in the QD population (FIG. 4A) was 4% tumor growth. The CR in the BID pollution (FIG. 4B) was unconfirmed, and consisted of target lymph node lesions that all turned normal. This CR patient also had CA125 CR unconfirmed status. The mean of best change in tumor diameter from baseline in the BID population (FIG. 4B) was 29% tumor reduction. The median PFS was not reached in the BID population, and was 50 days (1.6 months) in the QD population.

[9] = test system: PARP activity
[10] = published Phase I trial (Plummer, Br J Cancer 2020); cited from earlier work
[11] = test system: P-gp; experiment: in vitro; conditions: mouse
[12] = test system: SR human B cell lymphoma cell line; experiment: Cell proliferation assay, SR; conditions: 192 h, read-out: IC50, inhibition of cell proliferation
[13] = Myelotoxicity, ovarian cancer patients pooled with 14 metastatic breast cancer patients; format: in vivo, human; conditions: BID + QD (N = 42)
Protocol: Because myelotoxicity appeared to be a rare event for 2×-121, 14 patients with metastatic breast cancer that received 600 mg QD in a phase II trial were included in Table 10.

[14] = test system: Advanced Solid Tumors; experiment: Phase 1 study E7449-E044-101, tumor response (RECIST 1.1); format: in vivo, human
Protocol: The overall objective response rate (ORR; CR+PR) was 4.9% (n=2) with 1 subject each in the 600 mg (MTD) and 800 mg dose groups with a BOR of PR.

[15] = test system: human acute myeloid leukemia MV-4-11-luc2/AcGFP cell line; experiment: Cell proliferation assay, MV-4-11-luc2/AcGFP; conditions: 144 h, read-out: IC50, inhibition of cell proliferation
[16] = Safety: Phase 1 study with preliminary Phase 2 metastatic breast cancer data; format: in vivo
Protocol: Phototoxicity was in the Danish study primarily seen in 2 subjects treated during the hot summer period in 2018.
Anemia was registered in only few subjects at doses of 400 mg and above 3/42 (7%) (all grade 2) and 4/42 had increased liver enzymes (grade 2: 1/42 (2.6%) and grade 3: 3/42 (7%)).
Gastrointestinal side-effects were registered in some subjects: nausea 14/42 (33%), vomiting 7/42 (16%) and diarrhea 13/42 ([…]) all grade 1-2 apart from two cases of grade 3 diarrhea.

[17] = test system: CA125; experiment: Phase 2 advanced ovarian cancer study, CA125 test response (GCIG); format: in vivo, human
Protocol: Only patients with a baseline of CA125 twice the upper normal limit of 70 unit/ml who received at least one dose were included in IAP. Only patients who had completed 2 cycles were determined to be evaluable for CA125 response. Two QD patients and four BID patients were below 70 units/ml. The CA125 test was confirmed with a second measurement that was lower than or within 10% of the previous measurement.

[18] = test system: breast cancer; experiment: Phase 2 breast cancer study, response; format: in vivo, human; conditions: twelve subjects evaluable for response
Description: A breast cancer study was initiated in June 2018 and discontinued for futility after enrollment of 16 subjects. Twelve subjects were evaluable for response: Nine had PD and three subjects had SD.

NC(=O)c1cccc2cn(-c3ccc([C@@H]4CCCNC4)cc3)nc12 [niraparib]
Adverse events Grade 5 ([1]; 300 mg QD (N = 463), QUADRA trial): 2% | Dose modifications: Discontinuation ([1]; 300 mg QD (N = 463)): 21% | Dose modifications: Interruption ([1]; 300 mg QD (N = 463)): 62% | Dose modifications: Reduction ([1]; 300 mg QD (N = 463)): 47% | Treatment-related adverse events Grade 1 ([1]; 300 mg QD (N = 463)): 90% | Treatment-related adverse events Grade 2 ([1]; 300 mg QD (N = 463)): 56% | Treatment-related adverse events Grade 3 ([1]; 300 mg QD (N = 463)): 20% | Treatment-related adverse events Grade 4 ([1]; 300 mg QD (N = 463)): <1% | Anemia Grade 1-4 ([1]; QD (N = 463)): 51% | Anemia Grade 3-4 ([1]; QD (N = 463)): 27% | Neutropenia Grade 1-4 ([1]; QD (N = 463)): 20% | Neutropenia Grade 3-4 ([1]; QD (N = 463)): 13% | Thrombocytopenia Grade 1-4 ([1]; QD (N = 463)): 52% | Thrombocytopenia Grade 3-4 ([1]; QD (N = 463)): 28%

O=c1[nH]nc2c3c(cccc13)N=C(CN1Cc3ccccc3C1)N2 [stenoparib, 8-(isoindolin-2-ylmethyl)-2,9-dihydro-3H-pyridazino [3,4,5-de] quinazolin-3-one]
tolerability, body weight loss ([2]; 28 days): no significant body weight loss | tumor growth inhibition ([2]; consecutive 28-day administration): statistically significant tumor growth inhibition | Dose modifications: Discontinuation ([3]; 600 mg BID (N = 9)): 0% | Dose modifications: Interruption ([3]; 600 mg BID (N = 9)): 50% | Dose modifications: Reduction ([3]; 600 mg BID (N = 9)): 40% | Adverse events Grade 1-4 ([3]; 600 mg BID (N = 10)): 70% | Adverse events Grade 3-4 ([3]; 600 mg BID (N = 10)): 20% | Adverse events Grade 5 ([3]; 600 mg BID (N = 10)): 0% | Treatment-related adverse events Grade 1 ([3]; 600 mg BID (N = 10)): 70% | Treatment-related adverse events Grade 2 ([3]; 600 mg BID (N = 10)): 60% | Treatment-related adverse events Grade 3 ([3]; 600 mg BID (N = 10)): 20% | Treatment-related adverse events Grade 4 ([3]; 600 mg BID (N = 10)): 0% | Treatment-related adverse events Grade 5 ([3]; 600 mg BID (N = 10)): 0% | Adverse events Grade 1-4 ([3]; 600 mg QD (N = 18)): 100% | Adverse events Grade 3-4 ([3]; 600 mg QD (N = 18)): 61% | Adverse events Grade 5 ([3]; 600 mg QD (N = 18)): 6% | Dose modifications: Discontinuation ([3]; 600 mg QD (N = 18)): 11% | Dose modifications: Interruption ([3]; 600 mg QD (N = 18)): 83% | Dose modifications: Reduction ([3]; 600 mg QD (N = 18)): 28% | Treatment-related adverse events Grade 1 ([3]; 600 mg QD (N = 18)): 94% | Treatment-related adverse events Grade 2 ([3]; 600 mg QD (N = 18)): 83% | Treatment-related adverse events Grade 3 ([3]; 600 mg QD (N = 18)): 33% | Treatment-related adverse events Grade 4 ([3]; 600 mg QD (N = 18)): 0% | Treatment-related adverse events Grade 5 ([3]; 600 mg QD (N = 18)): 0% | increase of AUC by food ([4]; 600 mg dose, plasma): 10% | reduction of Cmax by food ([4]; 600 mg dose, plasma): 60% | accumulation based on AUC ([4]; Day -2 vs Day 15 administration): minimal accumulation | Tmax ([4]; human, plasma, across subjects and dose groups, oral): 0.5 to 4 h | administered dose recovered in urine ([4]; in vivo): less than 1.5% | half-life ([4]; plasma, human subjects, oral, read-out: elimination half-life (converted)): ~8 h | dose proportionality of absorption in plasma ([4]; single or multiple oral doses between 50 mg and 800 mg): proportional absorption | disease burden as measured by luciferase signal ([5]; 100 mg/kg): Reduced disease burden | survival benefit ([5]; 100 mg/kg for 28 days): statistically significant survival benefit | tolerability, body weight loss ([5]; 10, 30 or 100 mg/kg): well-tolerated without any significant body weight loss | disease burden by luciferase signal and survival benefit ([5]; 10 and 30 mg/kg): No statistically significant reduction in disease burden by luciferase signal or survival benefit | inhibition in PAR levels from baseline ([6]; 600 mg (MTD), food effect cohort, 2 to 4 hours post-dose): up to 90% | decrease in PAR levels ([6]; 24 hours post-dose): ≥ 70% | IC50 [7]: 219 nM | Tumor response CR, patients n (%) ([8]; 600 mg QD, N = 18 IAP): 0 (0%) | Tumor response PD, patients n (%) ([8]; 600 mg QD, N = 18 IAP): 9 (50%) | Tumor response PR, patients n (%) ([8]; 600 mg QD, N = 18 IAP): 0 (0%) | Tumor response SD > 16w, patients n (%) ([8]; 600 mg QD, N = 18 IAP): 1 (6%) | Tumor response SD, patients n (%) ([8]; 600 mg QD, N = 18 IAP): 3 (17%) | Tumor response CR, patients n (%) ([8]; BID 200 mg morning + 400 mg evening, N = 10 IAP, unconfirmed): 1 (10%) unconfirmed | mean of best change in tumor diameter from baseline, tumor reduction ([8]; BID population): 29% | median PFS ([8]; BID population): not reached | Tumor response PD, patients n (%) ([8]; BID, N = 10 IAP): 0 (0%) | Tumor response PR, patients n (%) ([8]; BID, N = 10 IAP): 0 (0%) | Tumor response SD > 16w, patients n (%) ([8]; BID, N = 10 IAP): 1 (10%) | Tumor response SD, patients n (%) ([8]; BID, N = 10 IAP): 3 (30%) | mean of best change in tumor diameter from baseline, tumor growth ([8]; QD population): 4% | PARP activity in tumor tissue ([9]; single dose 30 mg/kg, 12 hours post-dose): low levels of PARP activity were observed | PARP activity in tumor tissue ([9]; single dose 30 or 100 mg/kg, 1 and 6 hours post-dose): completely inhibited | PARP activity in tumor tissue ([9]; single dose 30 or 100 mg/kg, 24 hours post-dose): restored to control levels | myelotoxicity among adverse events [10]: no myelotoxicity among adverse events found in more than 5% of patients | IC50 [11]: 1390 nM | IC50 ([11]; with verapamil (P-gp antagonist; concentration not stated)): 1820 nM | IC50 [12]: 1060 nM | Anemia Grade 1-4 [13]: 21% | Anemia Grade 3-4 [13]: 7% | Neutropenia Grade 1-4 [13]: 2% | Neutropenia Grade 3-4 [13]: 0% | Thrombocytopenia Grade 1-4 [13]: 0% | Thrombocytopenia Grade 3-4 [13]: 0% | BOR of stable disease ([14]; 13 subjects): 31.7% | subjects with best overall response (BOR) of CR ([14]; 35 subjects assessed, investigator assessment, once daily dosing): None | overall objective response rate (ORR; CR+PR) ([14]; n=2, one PR each at 600 mg and 800 mg): 4.9% | IC50 [15]: 1100 nM | MTD ([16]; administered orally once daily, phase I study): 600 mg | diarrhea ([16]; human, in vivo): 25% | nausea ([16]; human, in vivo): 33% | vomiting ([16]; human, in vivo): 16% | DLT ([16]; in vivo): limited to fatigue and one case of anaphylactic reaction | cases of grade 3 diarrhea ([16]; in vivo): two | hematotoxicity or hepatotoxicity ([16]; in vivo): no significant hematotoxicity or hepatotoxicity was observed | CA125 response PR, patients n (%) ([17]; BID, N = 6 IAP): 0 (0%) | CA125 response SD, patients n (%) ([17]; BID, N = 6 IAP): 1 (17%) | CA125 response CR, patients n (%) ([17]; BID, N = 6 IAP, unconfirmed): 1 (17%) unconfirmed | CA125 response CR, patients n (%) ([17]; QD, N = 16 IAP): 0 (0%) | CA125 response PR, patients n (%) ([17]; QD, N = 16 IAP): 0 (0%) | CA125 response SD, patients n (%) ([17]; QD, N = 16 IAP): 3 (19%) | subjects with PD [18]: Nine | subjects with SD [18]: three

— patent US20240325396A1, “METHODS FOR TREATING CANCER” (Allarity Therapeutics, Inc., priority 2023, published 2024)
